3 compounds from ChEMBL document CHEMBL5390277, “Development of N-Terminally Modified Variants of the CXCR4-Antagonistic Peptide EPI-X4 for Enhanced Plasma Stability” (J Med Chem, 2023) can be followed below.

Structures are written as SMILES. pIC50: −log10 of the molar value. Square brackets hold non-standard residues; d marks the D form. Peptide text beside a SMILES is read from it.

One may read the pIC50 as −log10 of the IC50, conventionally taken in molar units. For orientation: half-life means how long it takes for the measured level to halve.

In series [1] the target is T1, C-X-C chemokine receptor type 4 (Homo sapiens, UniProt P61073). Description: Displacement of 12G5 mAb from CXCR4 in human SUP-T1 cells incubated for 2 hrs by flow cytometry analysis. Format: cell-based.
The nature of series [2]: Stability in human plasma assessed as half life measured upto 120 mins by mass spectrometry method. Format: ADME, cell-free.
For series [3], the system named is Human immunodeficiency virus 1. Description: Antiviral activity against HIV-1 NL4-3 infected in human TZM-bl cells assessed as inhibition of viral replication preincubated for 15 mins followed by viral infection and measured after 4320 mins by beta-gal screening assay. The conditions noted are these: Human immunodeficiency virus 1, NL4-3, TZM. Format: functional, organism-based.

Series [4] addresses T1, C-X-C chemokine receptor type 4. Description: Antagonist activity at CXCR4 in human SUP-T1 cells assessed as inhibition of CXCL12-induced ERK phosphorylation preincubated with 15 mins followed by CXCL12 stimulation and measured after 12 mins by flow cytometry analysis. Format: functional, cell-based. On the technique in general: A flow cytometer gives signals particle by particle.

For series [5] the target is unchanged. Description: Displacement of 12G5 antibody from CXCR4 in human SUP-T1 cells assessed as stability of the compound by measuring remaining activity in presence of human plasma media at 20 uM by flow cytometry based competitive analysis relative to control. Format: cell-based.
Series [6] shares this target. Description: Displacement of 12G5 antibody from CXCR4 in human SUP-T1 cells as fold increase in apparent IC50 in presence of human plasma media by flow cytometry based competitive analysis. Format: cell-based. The conditions noted are these: filed as antagonist.
For series [7], the system named is SUP-T1. Description: Inhibition of cell migration in human SUP-T1 cells assessed as inhibition of CXCL12 mediated cell migration incubated for 4 hrs in presence of chemoattractant, CXCL12 by Transwell based CellTiter-Glo-chemotaxis assay. Type of series: functional. (ATP-based viability assays read luminescence as a measure of living cells.)
Series [8] is described as follows: Stability in C57BL/6 mouse plasma assessed as compound remaining at 3.5 mg/kg,iv administration and measured after 30 mins in presence of fluorescent labeled CXCR4 antibody and CXCR4 expressing human SUP-T1 cells by antibody-competition based flow cytometry assay. Type of series: ADME, organism-based. The conditions noted are these: in vivo, 0.5 h.
Series [9] is described as follows: Toxicity in Zebrafish embryo incubated for 24 hrs by microscopic analysis. Details: species or system Danio rerio. The conditions noted are these: in vivo.
The target in series [10] is T1, C-X-C chemokine receptor type 4. Kind of series: Displacement of 12G5 antibody from CXCR4 in human SUP-T1 cells as fold increase in apparent IC50 in presence of human plasma media incubated for 8 hrs by flow cytometry based competitive analysis. The conditions noted are these: filed as antagonist. Format: cell-based.
The target is the same in series [11]. Description: Antagonist activity at CXCR4 (unknown origin) expressed in human HEK293T cells co-expressing SmBiT-beta-arrestin2 preincubated with compound for 10 mins followed by CXCL12 stimulation and measured for 120 mins by beta-arrestin2 recruitment based NanoBiT assay. Type of series: functional, cell-based.
Series [12] has the same target. Description: Displacement of 12G5 antibody from CXCR4 in human SUP-T1 cells in presence of human plasma media incubated for 2 hrs by flow cytometry based competitive analysis. Type of series: cell-based.
Series [13] has the same target. Description: Displacement of 12G5 antibody from CXCR4 in human SUP-T1 cells in presence of human plasma media incubated for 8 hrs by flow cytometry based competitive analysis. Format: cell-based.

T1 sequence (P61073 whole entry): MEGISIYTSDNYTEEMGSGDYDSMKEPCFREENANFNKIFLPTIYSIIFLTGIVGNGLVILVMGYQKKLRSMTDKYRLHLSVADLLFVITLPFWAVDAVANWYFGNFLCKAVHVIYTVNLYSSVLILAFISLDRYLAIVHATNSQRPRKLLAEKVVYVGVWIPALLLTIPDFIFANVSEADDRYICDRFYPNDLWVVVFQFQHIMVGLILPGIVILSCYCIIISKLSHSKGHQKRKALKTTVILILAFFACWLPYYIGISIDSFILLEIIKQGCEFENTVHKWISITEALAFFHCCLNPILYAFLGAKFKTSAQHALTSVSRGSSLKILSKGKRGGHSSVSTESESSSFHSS

Turning to `CC[C@H](C)[C@H](N)C(=O)N[C@H](C(=O)N[C@@H](CCCNC(=N)N)C(=O)N[C@@H](Cc1c[nH]c2ccccc12)C(=O)N[C@@H](CO)C(=O)N[C@@H](CCCCN)C(=O)N[C@@H](CCCCN)C(=O)N[C@H](C(=O)N1CCC[C@H]1C(=O)N[C@@H](CS)C(=O)N[C@H](C(=O)N[C@@H](CO)C(=O)O)C(C)C)C(C)C)C(C)C` (H-IVRWSKKVPCVS-OH), the values for the pIC50 in series [1], in series [3] and in series [4] were 6.46, 6.25 and 5.09, respectively. Also, the half-life in [2] came to 5.2 min.

Consider `CC[C@@H](C)[C@@H](N)C(=O)N[C@@H](CC(C)C)C(=O)N[C@@H](CCCNC(=N)N)C(=O)N[C@@H](Cc1c[nH]c2ccccc12)C(=O)N[C@@H](CO)C(=O)N[C@@H](CCCNC(=N)N)C(=O)N[C@@H](CCCCN)C(N)=O` (H-[dI]LRWSRK-NH2), for which the Activity in series [5] was 100%; in series [9], “Non-Toxic”. Moreover, the values for the fold change (FC) in [6] and in [10] were 1 and 1.1, respectively. Further, the negative-log IC50 (pIC50) is 6.58 in series [1], 5.70 in series [3], 5.17 in series [4] and 7.04 in series [11]. The inhibition entry in series [7] was “Dose-Dependent Effect”. Besides, the Stability entry in series [8] is “Stable”.

For the compound `CC[C@H](C)[C@H](N)C(=O)N[C@@H](CC(C)C)C(=O)N[C@@H](CCCNC(=N)N)C(=O)N[C@@H](Cc1c[nH]c2ccccc12)C(=O)N[C@@H](CO)C(=O)N[C@@H](CCCNC(=N)N)C(=O)N[C@@H](CCCCN)C(=O)N[C@@H](CC(C)C)C(=O)N1CCC[C@H]1C(=O)N[C@@H](CS)C(=O)N[C@H](C(=O)N[C@@H](CO)C(=O)O)C(C)C`, the Activity in series [5] came out at 100%. Moreover, in series [6], the fold change (FC) was 1. For the same compound, in series [8], the Stability result is given as “Unstable”. Moreover, the values for the pIC50 in series [12] and in series [13] were 6.32 and 5.80, respectively.
